The results in this text go back to patent publication US10112911B2, “Substituted cyanoguanidines as oral anti-virals” (Abbvie Inc, priority 2012, dated 2018).

Where a name gives a salt, the structure may show the parent alone. Read-outs that look alike come from different tables or passages of the source.

One data set has as its system HEp-2 cells. As to the kind of experiment: Cytotoxicity assay (MTT) run in parallel with the antiviral assay. The following applies: uninfected HEp-2 cells, 4 days incubation, 50% toxicity dose. In kind it is cell-based. As to the method:
HEp-2 cells and RSV (Group A, Long Strain) were obtained from the American Type Culture Collection (Manassas, Va.). Cytotoxicity of the compounds was determined in experiments done in parallel with the antiviral assays. To do this, 100 μL of assay medium was added to the wells of HEp-2 cells pretreated with 100 μL serially diluted compounds as described above. After 4 days of incubation, the viability of the cells was determined by the MT assay in the same way as detailed in the “Antiviral Assay” method. Results were expressed as 50% toxicity dose (TD50) values. Compounds were tested to determine both their antiviral and toxicity to determine their therapeutic window. Determination of the EC50 and TD50 of these active compounds were repeated one additional time to confirm the window.

The test system of data set [1] is RSV (Group A, Long Strain). As to the kind of experiment: Cytopathetic effect (CPE) protection antiviral assay, MTT readout. The class given is cell-based. The following applies: human respiratory syncytial virus, HEp-2, 96 h, read-out: RSV EC50. On the procedure: HEp-2 cells and RSV (Group A, Long Strain) were obtained from the American Type Culture Collection (Manassas, Va.).
A cytopathetic effect (CPE) protection assay was performed to determine the ability of a compound to protect the cells from viral infection and thus the CPE induced by viral infection. 96-Well plates were first seeded with […] per well in Dulbecco's modified Eagle's medium (DMEM) containing 10% fetal bovine serum (FBS). One day after the cells were seeded, they were preincubated with serial dilutions of compounds prepared in 100 μL assay medium (DMEM mixed with F12 medium at a 1:1 ratio, supplemented with 2% FBS and 1 mM sodium pyruvate) for 1 hour at 37° C. 100 μL of assay medium containing 0.2 multiplicity of infection (MOI) of RSV was then added to each well of cells. In addition to wells containing infected cells incubated with compounds, each plate also contained replicates of two kinds of controls: (1) Virus control contained cells infected with 0.2 MOI of RSV in assay medium, (2) Uninfected cell control contained cells incubated with assay medium only. After 4 days of incubation at 37° C., the viability of cells was assessed using MTT (Thiazolyl blue tetrazolium bromide, Sigma). A stock solution of MTT, at a concentration of 4 mg/mL in phosphate-buffered saline, was added to all wells at 25 μL per well. Plates were further incubated for 4 hours, and each well was then treated with 50 μL of a solution containing 20% sodium dodecyl sulfate (SDS) and 0.02 N HCl. After an overnight incubation, the plates were measured on a BioTek® microtiter plate reader at wavelengths of 570 nm and 650 nm. The MTT detection is based on the fact that viable (uninfected) cells can reduce the tetrazolium salts into colored formazan products, which can then be quantitated by spectrometry. Based on the spectrometric absorbance of each sample, the percent of protection from CPE, which is an indicator of protection from viral infection, can be calculated for each compound and the 50% effective concentrations (EC50) can be calculated using a nonlinear regression curve fitting equation provided by the GraphPad Prism® 4 software.
Compounds were tested to determine both their antiviral and toxicity to determine their therapeutic window. Determination of the EC50 and TD50 of these active compounds were repeated one additional time to confirm the window.

[2] abbreviates: HEp-2 cells, 0.2 MOI RSV, 4 days incubation, protection from CPE (Table 1).
Setting [3] is: HEp-2 cells, 0.2 MOI RSV, 4 days, Table 2, determination repeated to confirm window.

Broadly, the EC50 is the concentration needed to bring the measured effect to its halfway point. Turning to `Cc1ccccc1N/C(=N/C#N)N1CCN(c2nc3cccc(Cl)c3o2)CC1C(C)C` (stereo not shown) [Example 1.5, 4-(7-chloro-1,3-benzoxazol-2-yl)-N′-cyano-2-isopropyl-N-(2-methylphenyl)piperazine-1-carboximidamide], the “MTT TD50” value in the data set on HEp-2 cells is above 10 µM. Besides, the EC50 in data set [1] (setting [2]) and in data set [1] (setting [3]) was 810 nM throughout.

Regarding `Cc1ccccc1N/C(=N/C#N)N1CCN(c2nc3ccccc3c(=O)[nH]2)CC1C(C)C` (stereo not shown) [Example 1.10, N′-cyano-2-isopropyl-N-(2-methylphenyl)-4-(4-oxo-3,4-dihydroquinazolin-2-yl)piperazine-1-carboximidamide], the “MTT TD50” value in the data set with HEp-2 cells was above 100 µM. In addition, the EC50 in data set [1] (setting [2]) and in data set [1] (setting [3]) was 430 nM each time.

With `CCC1CN(c2cnc3ccccc3n2)CCN1/C(=N\C#N)Nc1ccccc1C` (stereo not shown) [Example 1.44, N′-cyano-2-ethyl-N-(2-methylphenyl)-4-(quinoxalin-2-yl)piperazine-1-carboximidamide], the “MTT TD50” value in the data set on HEp-2 cells was found to be 42.06 µM. Besides, the EC50 in data set [1] (setting [2]) and in data set [1] (setting [3]) was 120 nM in each case.

In the case of `Cc1ccccc1N/C(=N/C#N)N1CCN(c2cnc3ccccc3n2)CC1C(C)C` (stereo not shown) [Example 1.3, N′-cyano-2-isopropyl-N-(2-methylphenyl)-4-(quinoxalin-2-yl)piperazine-1-carboximidamide trifluoroacetate], the “MTT TD50” value in the data set on HEp-2 cells is above 32 µM. Besides, the EC50 in data set [1] was determined as 250 nM.

As to `Cc1ccccc1N/C(=N/C#N)N1CCN(c2nc3ccccc3o2)CC1C(C)C` (stereo not shown) [Example 1.4, 4-(1,3-benzoxazol-2-yl)-N′-cyano-2-isopropyl-N-(2-methylphenyl)piperazine-1-carboximidamide], the “MTT TD50” value in the data set on HEp-2 cells was determined as 28.85 µM. Also, the EC50 in data set [1] (setting [2]) and in data set [1] (setting [3]) was 1140 nM each time.

In the case of `Cc1ccccc1N/C(=N/C#N)N1CCN(c2ncnc3[nH]ccc23)CC1C(C)C` (stereo not shown) [Example 1.11, N′-cyano-2-isopropyl-N-(2-methylphenyl)-4-(7H-pyrrolo[2,3-d]pyrimidin-4-yl)piperazine-1-carboximidamide], the “MTT TD50” value in the data set on HEp-2 cells was above 100 µM. In addition, the concentration giving a half-maximal response (EC50) is 1410 nM in data set [1] (setting [2]) and 1910 nM in data set [1] (setting [3]).

For `Cc1ccccc1N/C(=N/C#N)N1CCN(c2ncnc3ccccc23)CC1C(C)C` (stereo not shown) [Example 1.8, N′-cyano-2-isopropyl-N-(2-methylphenyl)-4-(quinazolin-4-yl)piperazine-1-carboximidamide], the “MTT TD50” value in the data set on HEp-2 cells is above 100 µM. The concentration giving a half-maximal response (EC50) in data set [1] (setting [2]) was 450 nM; in data set [1] (setting [3]), 300 nM.

Consider `Cc1ccccc1N/C(=N/C#N)N1CCN(c2cnc3cc(F)ccc3n2)CC1C(C)C` (stereo not shown) [Example 1.54, N′-cyano-4-(6-fluoroquinoxalin-2-yl)-2-isopropyl-N-(2-methylphenyl)piperazine-1-carboximidamide], for which the “MTT TD50” value in the data set on HEp-2 cells is above 29.31 µM. Further, the EC50 in data set [1] (setting [2]) and in data set [1] (setting [3]) was 260 nM throughout.

For `Cc1ccccc1N/C(=N/C#N)N1CCN(c2nc3ccccc3[nH]2)CC1C(C)C` (stereo not shown) [Example 1.9, 4-(1H-benzimidazol-2-yl)-N′-cyano-2-isopropyl-N-(2-methylphenyl)piperazine-1-carboximidamide], in the data set on HEp-2 cells, the “MTT TD50” value is above 100 µM. In addition, the concentration for a half-maximal effect (EC50) in data set [1] (setting [2]) and in data set [1] (setting [3]) was 4090 nM in each case.

With `CC(C)C1CN(c2cnc3ccccc3n2)CCN1/C(=N\C#N)Nc1ccccc1Cl` (stereo not shown) [Example 1.19, N-(2-chlorophenyl)-N′-cyano-2-isopropyl-4-(quinoxalin-2-yl)piperazine-1-carboximidamide], the “MTT TD50” value with HEp-2 cells is above 27.49 µM. Also, the EC50 in data set [1] (setting [2]) and in data set [1] (setting [3]) was 150 nM each time.

Take `COC(=O)c1cnc(N2CCN(/C(=N\C#N)Nc3ccccc3Cl)C(C(C)C)C2)cn1` (stereo not shown) [Example 1.2, methyl 5-{4-[N-(2-chlorophenyl)-N′-cyanocarbamimidoyl]-3-isopropylpiperazin-1-yl}pyrazine-2-carboxylate]: the “MTT TD50” value with HEp-2 cells is above 100 µM. Also, the EC50 in data set [1] (setting [2]) and in data set [1] (setting [3]) was 1130 nM throughout.

Take `Cc1ccccc1N/C(=N/C#N)N1CCN(c2nc3ccccc3s2)CC1C(C)C` (stereo not shown) [Example 1.6, 4-(1,3-benzothiazol-2-yl)-N′-cyano-2-isopropyl-N-(2-methylphenyl)piperazine-1-carboximidamide]: the “MTT TD50” value with HEp-2 cells was above 10 µM. Also, the EC50 turned out to be 1590 nM in data set [1] (setting [2]) and 1870 nM in data set [1] (setting [3]).

Regarding `Cc1ccc2oc(N3CCN(/C(=N\C#N)Nc4ccccc4C)C(C(C)C)C3)nc2c1` (stereo not shown) [Example 1.7, N′-cyano-2-isopropyl-4-(5-methyl-1,3-benzoxazol-2-yl)-N-(2-methylphenyl)piperazine-1-carboximidamide], the “MTT TD50” value in the data set with HEp-2 cells was above 10 µM. The EC50 in data set [1] (setting [2]) and in data set [1] (setting [3]) was 830 nM each time.

Turning to `Cc1ccccc1N/C(=N/C#N)N1CCN(c2nccnc2C#N)CC1C(C)C` (stereo not shown) [Example 1.1, N′-cyano-4-(3-cyanopyrazin-2-yl)-2-isopropyl-N-(2-methylphenyl)piperazine-1-carboximidamide], in the data set with HEp-2 cells, the “MTT TD50” value was above 100 µM. The EC50 in data set [1] (setting [2]) and in data set [1] (setting [3]) was 890 nM each time.

In the case of `Cc1ccccc1N/C(=N/C#N)N1CCN(c2cnc3ccccc3n2)C[C@@H]1C(C)C` [Example 1.13, (2S)—N′-cyano-2-isopropyl-N-(2-methylphenyl)-4-(quinoxalin-2-yl)piperazine-1-carboximidamide trifluoroacetate], the “MTT TD50” value in the data set with HEp-2 cells is above 38.6 µM. Also, in data set [1], the EC50 is 200 nM.
